# In patent US20050170966A1, “Surfactants and surfactant compositions” (priority 2002, published 2005):
# Test system: mixtures of weeds: Cockspur (Echinochloa crus-galli), Fat-hen (Chenopodium album), Smartweed (Polygonum persicaria)
# Assay: Field trial: adjuvant effect on Glyphosate herbicidal activity on mixed weed plots
# Type: in vivo
# Conditions: glyphosate 1080 g(a.e.).ha^-1, adjuvant 540 g.ha^-1 (2:1)
# Procedure: This Example tests the effect of adjuvants on Glyphosate herbicidal activity under field conditions. The herbicide was applied to test plots of weeds at a rate of 1080 g(a.e.).ha^−1 (350 l.ha^−1 of spray containing 3.086 g.l^−1 a.e.) with a weight ratio of active to adjuvant of 2:1=540 g(adjuvant).ha^−1. Spray plots were treated with the herbicide formulations, one of each of four adjuvants of the invention (SE1, SE2, SE3, and SE4) a fatty amine ethoxylate (FAE1) for comparison, or left untreated as controls (no weed control). The spray plots were in a completely randomised block design with 3 replicates of 3×5 m plots. the sprayed plots were sprayed using a compressed-air AZO sprayer at a pressure of 2.5 bar, equipped with Teejet XR80015VS nozzles. During this trial, it rained for about 15 minutes about 2 hours after spraying, giving a good indication of the rainfastness off the formulations tested.
# The test plots used mixtures of the following weeds at the 2 to 4 leaf stage:
# The results of spraying were evaluated by visual comparison with untreated control blocks 12, 20 and 35 days after treatment (DAT), assessing chlorosis (chlor) and growth inhibition (inhib) as percentages with 0=no effect and 100=complete kill as compared with the untreated controls.
# [1] = 12 DAT, 0=no effect, 100=complete kill
Compound,inhib (%) growth inhibition (12 DAT) [%],chlor (%) chlorosis [1] [%],chlor (%) chlorosis (20 DAT) [%],inhib (%) growth inhibition (20 DAT) [%],chlor (%) chlorosis (35 DAT) [%],inhib (%) growth inhibition (35 DAT) [%]
"CCCCCCCCCCCCCCCCCCOCCOCCOCCOCCOCCOCCOCCOCCOCCOCCOCCOCCOCCOCCOCCOCCOCCOCCOCCOCCOCCOCCOCCOCCOCCOCC(O)CN(CC)CC (stereo not drawn) [SE3, 1-diethylamino-2-hydroxypropane-3-(stearyl 25-ethoxylate)]",63,62,72,72,68,75
1-[Bis-(2-hydroxyethyl)-amino]-2-hydroxypropane-3-(stearyl 25-ethoxylate) [SE4],62,63,75,75,65,68
1-[Diethylamino]-2-hydroxypropane-3-(Alc1 15-ethoxylate) [SE1],67,62,77,78,78,78
